Results taken from patent publication US6214581A, “Nucleic acids encoding a functional human purinoreceptor P2X3 and P2X6, and methods of production and use thereof” (Abbott Laboratories, priority 1998, dated 2001).
Like-named read-outs stand apart in the source and are kept apart here.

How the values were obtained:
human P2X3 receptors = biological target: T1, human P2X3 receptors (Homo sapiens, UniProt P56373); assay: Two-electrode voltage-clamp of Xenopus oocytes expressing recombinant human P2X3 receptor; assay type: cell-based; settings: for rank order potency: extracellular P2 receptor agonists; for rank order potency / block of P2X3 receptors: summary; for block of ATP-induced currents: ATP 0.3 μM, antagonist superfused at least 3 minutes before agonist; for block of P2X3 receptors: P2 receptor antagonists
T1 construct: expressed in transfected cells; host or cells: Xenopus laevis oocytes (nuclear injection of the P2X3 insert in pCDNA3.1)
T1 sequence (P56373 1-397): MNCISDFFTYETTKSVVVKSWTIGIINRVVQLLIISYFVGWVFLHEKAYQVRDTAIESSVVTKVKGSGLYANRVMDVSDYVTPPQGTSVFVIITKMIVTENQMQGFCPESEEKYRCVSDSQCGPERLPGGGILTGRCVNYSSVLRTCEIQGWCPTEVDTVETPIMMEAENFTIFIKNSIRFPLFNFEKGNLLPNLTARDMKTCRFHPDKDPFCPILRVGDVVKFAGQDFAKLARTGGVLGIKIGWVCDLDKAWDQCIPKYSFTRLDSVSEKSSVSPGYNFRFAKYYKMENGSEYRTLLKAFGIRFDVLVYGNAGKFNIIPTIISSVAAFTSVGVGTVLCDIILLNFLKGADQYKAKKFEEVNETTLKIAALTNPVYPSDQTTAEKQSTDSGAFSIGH
Protocol: Responses were measured at a holding potential of -60 mV in modified Barth's solution containing 10 mM BaCl2 and lacking CaCl2 and MgCl2 (final pH 7.4). However, in some experiments, the cell potential was intentionally varied in order to determine the response current-voltage relationship. Agonist was applied briefly using a computer-controlled solenoid valve and a push/pull applicator positioned to within 200-400 μm from the oocyte. Responses were recorded by computer in synchrony with agonist application. Antagonists were included with agonist in the push/pull applicator and were applied to the bath by superfusion for at least 3 minutes before application of agonist. Responses were quantified by measuring the peak amplitude.
The clone was grown up and prepared in large scale using the QIAgen maxiprep DNA preparation system according to the manufacturer's instructions. T he DNA was ethanol precipitated and resuspended in TE buffer. For RNA production, the P2X3 -pCDNA3.1 construct was linearized by digestion with the restriction enzyme NotI and P2X3 messenger RNA was produced using the T7 promoter in this vector and the Ambion mMessage mMachine™ in vitro transcription kit according to the manufacturer's instructions.
For functional anaysis of human P2X3 receptors, 10 ng of human P2X3 DNA prepared as described above were injected into the nucleus of Xenopus oocytes. Oocytes were incubated in normal Barth's solution containing 100 μg/ml gentamicin for 2-7 days following injection. The response to 10 μM ATP was then recorded.

[1] = tested on: P2X receptors on dorsal root ganglion nerve terminals in the spinal cord; settings: ATP-induced activation of P2X receptors on dorsal root ganglion nerve terminals; cited from earlier work
P2X6 receptor = settings: cited from earlier work
P2X4 receptor = settings: cited from earlier work
P2X2 = settings: cited from earlier work
P2X1 = settings: cited from earlier work

Row | SMILES | rank order potency (human P2X3 receptors) | EC50 (human P2X3 receptors) [nM] | block of ATP-induced currents (human P2X3 receptors) | block of P2X3 receptors (human P2X3 receptors) | block of P2X6 receptor (P2X6 receptor) | block of P2X4 receptor (P2X4 receptor) | further results
1 | CSc1nc(N)c2ncn([C@@H]3O[C@H](COP(=O)(O)OP(=O)(O)OP(=O)(O)O)[C@@H](O)[C@H]3O)c2n1 [2-methylthio-ATP] | 2-methylthio-ATP>ATP>α,β-methylene-ATP | – | – | – | – | – | EC50 (human P2X3 receptors; concentration-response, agonist, human P2X3 in Xenopus oocytes, ATP 0.01-1000 μM, read-out: EC50): 400 nM
2 | Nc1ncnc2c1ncn2[C@@H]1O[C@H](COP(=O)(O)OP(=O)(O)OP(=O)(O)O)[C@@H](O)[C@H]1O [ATP] | 2-methylthio-ATP>ATP>α,β-methylene-ATP | ~700 | – | – | – | – | reversal potential (human P2X3 receptors; ATP-induced current-voltage relationships): approximately zero; current-voltage rectification (human P2X3 receptors; ATP-induced, negative membrane potentials): pronounced inward rectification; mixed-conductance cation current (human P2X3 receptors; extracellular ATP (10 μM), holding potential -60 mV, oocytes injected with human P2X3 DNA): 100-6000 nA; release of glutamate [1]: stimulates the release of glutamate
3 | Cc1nc(N=Nc2ccc(S(=O)(=O)O)cc2S(=O)(=O)O)c(COP(=O)(O)O)c(C=O)c1O [PPADS, pyridoxal-phosphate-6-azophenyl-2',4'-disulfonic acid] | – | – | complete block | blocked | cannot be blocked | cannot be blocked | –
4 | Cc1ccc(C(=O)Nc2ccc(S(=O)(=O)O)c3cc(S(=O)(=O)O)cc(S(=O)(=O)O)c23)cc1NC(=O)c1cccc(NC(=O)Nc2cccc(C(=O)Nc3cc(C(=O)Nc4ccc(S(=O)(=O)O)c5cc(S(=O)(=O)O)cc(S(=O)(=O)O)c45)ccc3C)c2)c1 [suramin] | – | – | complete block | blocked | cannot be blocked | cannot be blocked | –
5 | Nc1ncnc2c1ncn2[C@@H]1O[C@H](COP(=O)(O)CP(=O)(O)OP(=O)(O)O)[C@@H](O)[C@H]1O [α,β-methylene-ATP] | 2-methylthio-ATP>ATP>α,β-methylene-ATP | 2100 | – | – | – | – | sensitivity of P2X2 to agonist (P2X2): insensitive; activation of P2X6 receptor (P2X6 receptor; agonist): not activated; sensitivity of P2X1 to agonist (P2X1): sensitive; activation of P2X4 receptor (P2X4 receptor; agonist): not activated
